Data reported in publication PMC4829596 (Frontiers in Microbiology, 2016).
Values after ≈ are worked out from the molar mass of the structure shown. Like-named read-outs stand apart in the source and are kept apart here.

Key:
[1] = test system: Caco2 and HepG2 cells; assay type: cell-based; conditions: at the determined MIC concentrations; range over compounds and cell lines
Method: (§1) Cytotoxicity of the fungal extract and the identified compounds was determined measuring lactate dehydrogenase release using human intestinal epithelial (Caco2) and human hepatocytic (HepG2) cells. […] Cells were seeded into 96-well plates (5 × 10^4 cells per well) and incubated until a confluent cell layer had developed. After discarding of the media cells were incubated with 50 μl of media and 50 μl of fungal extract or compound (final concentration: PAA 2 × 10^6 μg/l, 4FP 2 × 10^6 μg/l, ICA 2 × 10^6 μg/l, IAA 2 × 10^5 μg/l, PLA 2 × 10^6 μg/l, cPM 2 × 10^6μg/l and cFP 2 × 10^6 μg/l) for 24 h at 37°C. […] LDH release was measured according to the manufacturer’s protocol (Sigma–Aldrich, USA).

[2] = test system: K. pneumoniae; assay: Determination of MIC; assay type: cell-based, Klebsiella pneumoniae; conditions: for MIC: Klebsiella pneumoniae
Method: (§2) Minimal inhibitory concentrations (MICs) of purified compounds and commercially available standards were assessed against S. aureus, C. albicans, P. aeruginosa, K. pneumoniae, E. coli, ESBL K. pneumoniae, ESBL E. coli and the two MRSA strains (B337919 and B335466). Stock solutions of 5 × 10^6 μg/l of p-hydroxybenzaldehyde, and phenyllactic acid were prepared using water. Stock solutions of 1 × 10^8 μg/l indole-3-carboxylic acid, PAA and indole-3-acetic acid were prepared using methanol and diluted with water (working solution of 5 × 10^6 μg/l). Stocks of 1 × 10^6 μg/l of cFP and cPM were dissolved in water. […] Methanol and water were used as control.

[3] = test system: ESBL K. pneumoniae; assay: Determination of MIC; assay type: cell-based, Klebsiella pneumoniae; conditions: for MIC: Klebsiella pneumoniae
Method: as §2

[4] = test system: MRSA Staphylococcus (S.) aureus B335466; assay: Determination of MIC; assay type: cell-based
Method: as §2

[5] = test system: MRSA Staphylococcus (S.) aureus B337919; assay: Determination of MIC; assay type: cell-based
Method: as §2

[6] = test system: human hepatocytic (HepG2) cells; assay: Cytotoxicity assay, lactate dehydrogenase release; assay type: cell-based; conditions: 24 h, LDH
Method: as §1

[7] = test system: human intestinal epithelial (Caco2) cells; assay: Cytotoxicity assay, lactate dehydrogenase release; assay type: cell-based; conditions: for % of living Caco2 cells: 24 h, LDH
Method: as §1

[8] = test system: all tested organisms; assay: Determination of MIC, statements over all tested organisms; assay type: cell-based; conditions: against the tested microorganisms
Method: as §2

[9] = test system: C. albicans; assay: Determination of MIC; assay type: cell-based, Candida albicans; conditions: for MIC: Candida albicans
Method: as §2

[10] = test system: E. coli; assay: Determination of MIC; assay type: cell-based, Escherichia coli; conditions: for MIC: Escherichia coli
Method: as §2

[11] = test system: ESBL E. coli; assay: Determination of MIC; assay type: cell-based, Escherichia coli; conditions: for MIC: Escherichia coli
Method: as §2

[12] = test system: Bacillus subtilis, S. aureus and Micrococcus luteus; set-up: method as in Jayatilake et al., 1996; Thomas et al., 2010; conditions: ref Jayatilake et al., 1996; Thomas et al., 2010; cited from earlier work
[13] = test system: HepG2 cells; assay: XTT assay, metabolic active cells; assay type: cell-based, human
Method: (§3) In parallel the % of metabolic cells was measured using the XTT [2,3-Bis-(2-methoxy-4-nitro-5-sulfophenyl)-2H-tetra zolium-5-carboxanilide] assay (Thermo Scientific). Briefly, after treatment with the fungal extract or the different compounds cells were incubated with XTT and phenanzine methosulfate (Thermo Scientific) for 2 h. Absorbance was measured at 450 nm and % of metabolic active cells was calculated versus the control sample (media). As controls we incubated the cells without fungal cultures or compound, and with VPA alone.

[14] = test system: Caco2 cells; assay: XTT assay, metabolic active cells; assay type: cell-based, human; conditions: for % of metabolic active Caco2 cells: XTT
Method: as §3

[15] = test system: S. aureus; assay: Determination of MIC; assay type: cell-based, Staphylococcus aureus; conditions: for MIC: Staphylococcus aureus
Method: as §2

[16] = test system: P. aeruginosa; assay: Determination of MIC; assay type: cell-based, Pseudomonas aeruginosa; conditions: for MIC: Pseudomonas aeruginosa
Method: as §2

[17] = set-up: method as in Rodloff et al., 2008; conditions: ref Rodloff et al., 2008; cited from earlier work
[18] = ESBL K. pneumoniae, read-out: MIC

SMILES: CSCCC1NC(=O)C2CCCN2C1=O [cPM, cyclo-(L-proline-L-methionine)]
- dead cells [1]: 3.99–8.61%
- Inhibitory concentration ([2]; lowest concentration at which the inhibitory effect was detectable, K. pneumoniae): 5 g/L
- Inhibitory concentration ([3]; lowest concentration at which the inhibitory effect was detectable, ESBL K. pneumoniae): 5 g/L
- Inhibitory concentration ([4]; lowest concentration at which the inhibitory effect was detectable, MRSA 335): 2.5 g/L
- Inhibitory concentration ([5]; lowest concentration at which the inhibitory effect was detectable, MRSA 337): 2.5 g/L
- % of living HepG2 cells ([6]; compound 2mg/ml): 3.99%
- % of living Caco2 cells ([7]; compound 2mg/ml): 4.77%
- growth inhibitory activity [8]: 2 g/L
- Inhibitory concentration ([9]; lowest concentration at which the inhibitory effect was detectable, C. albicans): 5 g/L
- Inhibitory concentration ([10]; lowest concentration at which the inhibitory effect was detectable, E. coli): 5 g/L
- Inhibitory concentration ([11]; lowest concentration at which the inhibitory effect was detectable, ESBL E. coli): 5 g/L
- antimicrobial activity [12]: no antimicrobial activity
- % of metabolic active HepG2 cells ([13]; compound 2mg/ml): 107.47%
- % of metabolic active Caco2 cells ([14]; compound 2mg/ml): 99.18%
- Inhibitory concentration ([15]; lowest concentration at which the inhibitory effect was detectable, S. aureus): 2.5 g/L
- Inhibitory concentration ([16]; lowest concentration at which the inhibitory effect was detectable): 5 g/L

SMILES: O=Cc1ccc(O)cc1 [4FP, p-hydroxybenzaldehyde]
- MIC ([2]; K. pneumoniae, read-out: MIC): 2500 mg/L (≈ 20.5 mM)
- MIC [3, 18]: 2500 mg/L (≈ 20.5 mM)
- MIC ([4]; MRSA 335, read-out: MIC): 2500 mg/L (≈ 20.5 mM)
- MIC ([5]; MRSA 337, read-out: MIC): 2500 mg/L (≈ 20.5 mM)
- % of living HepG2 cells ([6]; compound 2mg/ml): 7.86%
- dead cells ([7]; at the determined MIC concentrations, Caco2): 25.9%
- % of living Caco2 cells ([7]; compound 2mg/ml): 25.94%
- MIC ([9]; C. albicans, read-out: MIC): 1000 mg/L (≈ 8.19 mM)
- MIC ([10]; E. coli, read-out: MIC): 2500 mg/L (≈ 20.5 mM)
- MIC ([11]; ESBL E. coli, read-out: MIC): 2500 mg/L (≈ 20.5 mM)
- % of metabolic active HepG2 cells ([13]; compound 2mg/ml): 57.33%
- % of metabolic active Caco2 cells ([14]; compound 2mg/ml): 32.06%
- metabolic active cells ([14]; human): 57.3%
- MIC ([15]; S. aureus, read-out: MIC): 2000 mg/L (≈ 16.4 mM)
- MIC [16]: 2500 mg/L (≈ 20.5 mM)

SMILES: C[C@H]1COc2c(N3CCN(C)CC3)c(F)cc3c(=O)c(C(=O)O)cn1c23 [levofloxacin]
- accepted MIC values for antibiotics in clinical use [17]: 0.003 mg/L

SMILES: O=C(O)Cc1ccccc1 [PAA, phenylacetic acid]
- dead cells [1]: 3.99–8.61%
- MIC [2]: 2500 mg/L (≈ 18.4 mM)
- MIC [3]: 2500 mg/L (≈ 18.4 mM)
- MIC [4]: 2000 mg/L (≈ 14.7 mM)
- MIC [5]: 2000 mg/L (≈ 14.7 mM)
- % of living HepG2 cells ([6]; compound 2mg/ml): 6.99%
- % of living Caco2 cells ([7]; compound 2mg/ml): 6.53%
- MIC [9]: 2500 mg/L (≈ 18.4 mM)
- MIC [10]: 2000 mg/L (≈ 14.7 mM)
- MIC [11]: 2000 mg/L (≈ 14.7 mM)
- % of metabolic active HepG2 cells ([13]; compound 2mg/ml): 122.9%
- % of metabolic active Caco2 cells ([14]; compound 2mg/ml): 113.54%
- MIC [15]: 2000 mg/L (≈ 14.7 mM)

SMILES: O=C(O)Cc1c[nH]c2ccccc12 [IAA, indole-3-acetic acid]
- MIC ([2]; K. pneumoniae, read-out: MIC): 400 mg/L (≈ 2.28 mM)
- MIC [3, 18]: 2000 mg/L (≈ 11.4 mM)
- MIC ([4]; MRSA 335): 400 mg/L (≈ 2.28 mM)
- MIC ([4]; MRSA strain B335466, read-out: MIC): 400 mg/L (≈ 2.28 mM)
- MIC ([5]; MRSA 337): 200 mg/L (≈ 1.14 mM)
- MIC ([5]; MRSA strain B337919, read-out: MIC): 200 mg/L (≈ 1.14 mM)
- % of living HepG2 cells ([6]; compound 0.2mg/ml): 7.27 ± 1.77%
- % of living Caco2 cells ([7]; compound 0.2mg/ml): 8.61%
- MIC ([9]; C. albicans, read-out: MIC): 400 mg/L (≈ 2.28 mM)
- MIC ([10]; E. coli, read-out: MIC): 1750 mg/L (≈ 9.99 mM)
- MIC ([11]; ESBL E. coli, read-out: MIC): 1750 mg/L (≈ 9.99 mM)
- % of metabolic active HepG2 cells ([13]; compound 0.2mg/ml): 108.28%
- % of metabolic active Caco2 cells ([14]; compound 0.2mg/ml): 103.64%
- MIC ([15]; S. aureus, read-out: MIC): 400 mg/L (≈ 2.28 mM)
- MIC [16]: 2000 mg/L (≈ 11.4 mM)
